Experiment in all cases: Antifungal activity assay, mycelial growth inhibitory rate method
What all share (assay type): cell-based

The subject of assay [1] is Alternaria alternate. Particulars: for inhibition of growth at 100 µg/mL: 100 μg/mL in PDA medium, 28° C., 48-72 h; for IC50: mycelial growth, PDA medium, 100-0.0488 μg/mL. As for the experimental part:
(§1) The antifungal activities were evaluated against seven plant phytopathogenic fungi, by the mycelial growth inhibitory rate method, according to a reported method (Yu-Bin Bai, Meng Zhang, Ding Li, Yu Zhao, Liang-Zhu Huang, and Jin-Ming Gao. J. Agric. Food. Chem., 2023, 71, 16, 6236-6248). The target phytopathogenic fungi are Cytospora sp., Alternaria solani Sorauer, Alternaria alternate, Botrytis sp., Botrytis cinerea Pers., Colletotrichum gloeosporioides and Botryosphaeria dothidea. 100 μg/mL PDA mediums were prepared at 50° C. The petri dishes were incubated and cultivated at 28° C. for 48-72 h. Each sample was measured in triplicate, each colony diameter of all triplicates was measured 4 times by cross bracketing method. Hymexazol (Hym) as the positive control and the result of inhibition rate was calculated according to the formula: [formula] • where C represents the diameter of fungal growth on untreated PDA, and T represents the diameter of fungal growth on treated PDA. […] PDA mediums with different compound concentrations (100, 50, 25, 12.5, 6.25, 3.125, 1.5625, 0.78125, 0.3906, 0.1953, 0.0977, 0.0488 μg/mL) was prepared and their half inhibitory concentration (IC50) values were accurately tested. All half inhibitory concentration results are shown in Table 2 and Hymexazol (Hym) as the positive control.

The test system of assay [2] is Alternaria solani Sorauer. Particulars: for inhibition of growth at 100 µg/mL: 100 μg/mL in PDA medium, 28° C., 48-72 h, read-out: Average values of antifungal rate (%) A.s.; for IC50: mycelial growth, PDA medium, 100-0.0488 μg/mL. As for the experimental part: as §1
In assay [3] the test system is Botryosphaeria dothidea. Particulars: for inhibition of growth at 100 µg/mL: 100 μg/mL in PDA medium, 28° C., 48-72 h, read-out: Average values of antifungal rate (%) B.d.; for IC50: mycelial growth, PDA medium, 100-0.0488 μg/mL. As for the experimental part: as §1
Assay [4] deals with Botrytis cinerea Pers. Particulars: for inhibition of growth at 100 µg/mL: 100 μg/mL in PDA medium, 28° C., 48-72 h, read-out: Average values of antifungal rate (%) B.c.; for IC50: mycelial growth, PDA medium, 100-0.0488 μg/mL. On the procedure: as §1
In assay [5] the test system is Botrytis sp. Particulars: for inhibition of growth at 100 µg/mL: 100 μg/mL in PDA medium, 28° C., 48-72 h, read-out: Average values of antifungal rate (%) B.s.; for IC50: mycelial growth, PDA medium, 100-0.0488 μg/mL. As for the experimental part:
as §1

Assay [6] has as its system Colletotrichum gloeosporioides. Particulars: for inhibition of growth at 100 µg/mL: 100 μg/mL in PDA medium, 28° C., 48-72 h, read-out: Average values of antifungal rate (%) C.g.; for IC50: mycelial growth, PDA medium, 100-0.0488 μg/mL. As for the experimental part: as §1
Assay [7] deals with Cytospora sp. Particulars: for inhibition of growth at 100 µg/mL: 100 μg/mL in PDA medium, 28° C., 48-72 h, read-out: Average values of antifungal rate (%) C.s.; for IC50: mycelial growth, PDA medium, 100-0.0488 μg/mL. On the procedure: as §1

These results are taken from patent US12692244B2, “Griseofulvin 4 position etherified derivatives and their application” (Yan'an University, priority 2023, dated 2026).

≈ marks a conversion by molar mass, not a printed value.

In the case of `C#CCOc1cc(OC)c(Cl)c2c1C(=O)[C@@]1(O2)C(OC)=CC(=O)C[C@H]1C` [Compound 01, 4 Position Propargyl Griseofulvin Derivative], the inhibition of growth at 100 µg/mL came out at 97.4% in assay [1]; 100% in assay [2]; 98% in assay [3]; 98.6% in assay [4]; 100% in assay [5]; 91.3% in assay [6]. Besides, in assay [7], the inhibition of growth at 100 µg/mL worked out at 96.6%. In addition, the IC50 amounted to 1.28 µg/mL (≈ 3.4 µM) in assay [1]; 1.32 ± 0.01 µg/mL (≈ 3.5 µM) in assay [2]; 1.35 ± 0.07 µg/mL (≈ 3.58 µM) in assay [3]; 2.04 ± 0.12 µg/mL (≈ 5.41 µM) in assay [4]; 2.84 ± 0.22 µg/mL (≈ 7.54 µM) in assay [5]; 0.06 ± 0.02 µg/mL (≈ 0.159 µM) in assay [6]. The compound also came in with an IC50 in assay [7] of 1.84 ± 0.01 µg/mL (≈ 4.88 µM).
Regarding `C=CCOc1cc(OC)c(Cl)c2c1C(=O)[C@@]1(O2)C(OC)=CC(=O)C[C@H]1C` [Compound 02, 4 Position Allyl Griseofulvin Derivative], the inhibition of growth at 100 µg/mL in assay [1] was found to be 49.1%; in assay [2], 77%; in assay [3], 51.7%; in assay [4], 56.9%; in assay [5], 85.2%; in assay [6], 70.1%. In addition, the inhibition of growth at 100 µg/mL in assay [7] is 52.7%. Moreover, the IC50 in assay [1] was above 100 µg/mL; in assay [2], 14.9 ± 5.66 µg/mL (≈ 39.3 µM); in assay [3], above 50 µg/mL; in assay [4], above 50 µg/mL; in assay [5] it was 3.93 ± 0.8 µg/mL (≈ 10.4 µM); in assay [6], 4.05 ± 0.46 µg/mL (≈ 10.7 µM). Moreover, the IC50 in assay [7] is above 50 µg/mL.
On to `CCCCOc1cc(OC)c(Cl)c2c1C(=O)[C@@]1(O2)C(OC)=CC(=O)C[C@H]1C` [Compound 03, 4 Position Butyl Griseofulvin Derivative], for which the inhibition of growth at 100 µg/mL amounted to 7.41% in assay [1]; 26.9% in assay [2]; 31.8% in assay [3]; 19.1% in assay [4]; 62.3% in assay [5]; 68.4% in assay [6]. For the same compound, the inhibition of growth at 100 µg/mL in assay [7] is 29.1%. Besides, the IC50 in assay [1] was above 100 µg/mL; in assay [2], above 100 µg/mL; in assay [3], above 100 µg/mL; in assay [4], above 100 µg/mL; in assay [5], above 25 µg/mL; in assay [6], above 25 µg/mL. For the same compound, the IC50 in assay [7] is above 100 µg/mL.
In the case of `COC1=CC(=O)C[C@@H](C)[C@]12Oc1c(Cl)c(OC)cc(OCC3CC3)c1C2=O` [Compound 04, 4 Position Cyclopropylmethyl Griseofulvin Derivative], the inhibition of growth at 100 µg/mL in assay [1] was 41.4%; in assay [2], 70.5%; in assay [3] it was 26.2%; in assay [4], 50.7%; in assay [5] it was 69.8%; in assay [6], 48%. Besides, the inhibition of growth at 100 µg/mL in assay [7] was 65.5%. In addition, the IC50 in assay [1] was above 25 µg/mL; in assay [2] it was 17.85 ± 0.04 µg/mL (≈ 45.4 µM); in assay [3] it was above 100 µg/mL; in assay [4], above 100 µg/mL; in assay [5], above 100 µg/mL; in assay [6], above 100 µg/mL. In assay [7], this compound returned an IC50 above 50 µg/mL.
On to `COCOc1cc(OC)c(Cl)c2c1C(=O)[C@@]1(O2)C(OC)=CC(=O)C[C@H]1C` [Compound 05, 4 Position Methoxymethyl Griseofulvin Derivative], for which the inhibition of growth at 100 µg/mL in assay [1] turned out to be 49.1%; in assay [2] it was 75.4%; in assay [3] it was 58.4%; in assay [4], 66%; in assay [5], 88.6%; in assay [6], 71.7%. Besides, the inhibition of growth at 100 µg/mL in assay [7] was 73.7%. In addition, the IC50 in assay [1] is above 50 µg/mL; in assay [2], 83.2 ± 14.5 µg/mL (≈ 217 µM); in assay [3], above 25 µg/mL; in assay [4], above 25 µg/mL; in assay [5], 31.6 ± 7.3 µg/mL (≈ 82.4 µM); in assay [6], 16.1 ± 1.3 µg/mL (≈ 42.2 µM). In assay [7], this compound yielded an IC50 of 81.4 ± 1.23 µg/mL (≈ 213 µM).
Regarding `COC1=CC(=O)C[C@@H](C)[C@]12Oc1c(Cl)c(OC)cc(OCc3ccccc3F)c1C2=O` [Compound 06, 4 Position 2-Fluorobenzyl Griseofulvin Derivative], the inhibition of growth at 100 µg/mL is 3.45% in assay [1]; 13.1% in assay [2]; 18.1% in assay [3]; 55.6% in assay [4]; 69.8% in assay [5]; 75.6% in assay [6]. In addition, in assay [7], the inhibition of growth at 100 µg/mL is 6.08%. The 50% inhibitory concentration (IC50) is above 100 µg/mL in assay [1]; above 100 µg/mL in assay [2]; above 100 µg/mL in assay [3]; above 50 µg/mL in assay [4]; above 25 µg/mL in assay [5]; 1.92 ± 0.19 µg/mL (≈ 4.3 µM) in assay [6]. Besides, the IC50 in assay [7] was above 100 µg/mL.
`COC1=CC(=O)C[C@@H](C)[C@]12Oc1c(Cl)c(OC)cc(OCc3ccsc3)c1C2=O` [Compound 07, 4 Position 3-Methylthiophene Griseofulvin Derivative]: the inhibition of growth at 100 µg/mL in assay [1] was 43.1%; in assay [2], 62.3%; in assay [3], 42.3%; in assay [4], 59.7%; in assay [5], 73.8%; in assay [6] it was 72.4%. The inhibition of growth at 100 µg/mL in assay [7] turned out to be 54.7%. Besides, the IC50 in assay [1] was above 100 µg/mL; in assay [2], above 50 µg/mL; in assay [3], above 50 µg/mL; in assay [4] it was above 25 µg/mL; in assay [5], 17.6 ± 0.27 µg/mL (≈ 40.4 µM); in assay [6] it was 3.82 ± 0.09 µg/mL (≈ 8.78 µM). In assay [7], this compound yielded an IC50 above 50 µg/mL.
With `COC1=CC(=O)C[C@@H](C)[C@]12Oc1c(Cl)c(OC)cc(OCc3ccc(C(C)=O)cc3)c1C2=O` [Compound 08, 4 Position 1-(4-(Methyl)Phenyl)-Ethanone Griseofulvin Derivative], the inhibition of growth at 100 µg/mL in assay [1] turned out to be 2.59%; in assay [2], 0%; in assay [3], 4.7%; in assay [4] it was 43.1%; in assay [5] it was 47.6%; in assay [6], 26%. Moreover, in assay [7], the inhibition of growth at 100 µg/mL was found to be 7.43%. Further, the IC50 in assay [1], in assay [2], in assay [3], in assay [4], in assay [5] and in assay [6] was above 100 µg/mL throughout. This compound returned an IC50 in assay [7] above 100 µg/mL.
With `COC1=CC(=O)C[C@@H](C)[C@]12Oc1c(Cl)c(OC)cc(OC3CCCC3)c1C2=O` [Compound 09, 4 Position Cyclopentyl Griseofulvin Derivative], the inhibition of growth at 100 µg/mL in assay [1] is 31%; in assay [2], 45.9%; in assay [3], 34.2%; in assay [4], 59.7%; in assay [5] it was 63.1%; in assay [6] it was 40.9%. In addition, the inhibition of growth at 100 µg/mL in assay [7] worked out at 59.5%. Moreover, the IC50 in assay [1] was above 100 µg/mL; in assay [2], above 100 µg/mL; in assay [3], above 100 µg/mL; in assay [4] it was above 25 µg/mL; in assay [5], above 25 µg/mL; in assay [6] it was above 100 µg/mL. Further, the IC50 in assay [7] was above 25 µg/mL.
For `Cc1cc(O)no1` [Hym, Hymexazol, reference compound], the inhibition of growth at 100 µg/mL in assay [1] was found to be 92.6%; in assay [2], 97.4%; in assay [3], 55.6%; in assay [4], 100%; in assay [5], 92.5%; in assay [6], 43.2%. Also, in assay [7], the inhibition of growth at 100 µg/mL turned out to be 48%. Besides, the IC50 was 15.58 ± 0.13 µg/mL (≈ 157 µM) in assay [1]; 45.3 ± 14 µg/mL (≈ 457 µM) in assay [2]; above 50 µg/mL in assay [3]; above 6.25 µg/mL in assay [4]; 13.5 ± 1.89 µg/mL (≈ 136 µM) in assay [5]; above 100 µg/mL in assay [6]. This compound yielded an IC50 in assay [7] above 100 µg/mL.

One may read the IC50 as the concentration at which inhibition is half-maximal.
